Molecules are shown by their SMILES. pIC50: −log10 of the molar value.

As a reminder, the Kd is a measure of binding affinity in units of concentration. Read a high Kd as a looser complex. One may read the pIC50 as the negative decadic logarithm of the IC50, by convention in mol/L. Higher therefore signals a low IC50.

For one experiment, the target named is B-Raf (Homo sapiens, UniProt P15056). In words: Fluorescence Anisotropy Kinase Binding Assay (Assay 1). The source says:
Fluorescence Anisotropy Kinase Binding Assay
The concentration of kinase enzyme should preferably be ≧1×Kf. The concentration of fluorescent ligand required will depend on the instrumentation used, and the fluorescent and physicochemical properties. The concentration used must be lower than the concentration of kinase enzyme, and preferably less than half the kinase enzyme concentration. A typical protocol is:
All compounds are serially diluted in DMSO, then by a one step dilution into buffer of comparison, 50 mM HEPES, […] pH7.5, 1 mM CHAPS, 10 mM MgCL2, for the assay.
B-Raf Enzyme concentration: 1 nM
Fluorescent ligand concentration: 0.5 nM
Test compound concentration: 0.5 nM -100 uM
Components incubated in 10 ul final volume in LJL HE 384 type B black microtitre plate until equilibrium reached (Over 3 h, up to 30 h)
Fluorescence anisotropy read in an LJL Acquest.
• Ki=dissociation constant for inhibitor binding • Kf=dissociation constant for fluorescent ligand binding
The fluorescent ligand is the following compound:
which is derived from 5-[2-(4-aminomethylphenyl)-5-pyridin-4-yl]-1H-imidazol4-yl]-2-chlorophenol and rhodamine green.
On the technique in general: Polarisation of emitted light reports the rotation of a fluorescent probe.

Another experiment relates to human melanoma A375P. The experiment can be described thus: Methylene Blue Growth Inhibition Assay (Assay 2), A375P. Format: cell-based. Particulars: B-Raf V599E, Ras wt.
In experiment [1] the test system is human colon carcinoma (Colo 201) cells. The experiment can be described thus: XTT 72 hr Growth Inhibition (Assay 3), Colo201. Format: cell-based. Particulars: Colorectal cancer, B-Raf ND, Ras ND. The procedure:
(§1) XTT 72 hr Growth Inhibition Protocol for Mammalian Cultured Cells (Assay 3)
(§2) Human diploid foreskin fibroblasts (HFF) or human colon carcinoma (Colo 201) cells were grown in Dulbecco's modified Eagle's medium (DMEM) (Invitrogen/Life Technologies) containing 10% fetal bovine serum (FBS) and the antibiotics penicillin (100 Units/ml) and streotomycin (100 micrograms/ml) (Invitrogen/Life Technologies). Growth was at 37° C. in humidified 5% CO2 incubators in 75 cm^2 plastic flasks. Cells were harvested using 0.25% trypsin/1 mM ethylenediaminetetraacetic acid (EDTA), resuspended in growth medium, and counted using a hemocytometer. Flat-bottomed 96-well plates were seeded with 2×10^3 cells/well in a volume of 200 ul from trypsinized exponentially growing cultures. To “blank” wells, growth medium was added with no additions. Cells were incubated overnight to permit attachment.
(§3) Next day, medium from wells that contained cells was replaced with 180 microliters of fresh medium. Appropriate dilutions of test compounds were added to the wells from stock soloutions of compound dissolved in dimethyl sulfoxide (DMSO); final DMSO concentration in all wells was 0.2%. […] Absorbance at 450 nm was then determined using a 96-well UV plate reader (Molecular Devices). Under these conditions, absorbance of untreated control cells at 450 nm was at least 1.0 optical density unit/ml. […]

The test system of the next experiment is human melanoma SKMEL3. The experiment can be described thus: Methylene Blue Growth Inhibition Assay (Assay 2), SKMEL3. Format: cell-based. The following applies: SK-MEL3, B-Raf V599E, Ras wt.
The subject of experiment [2] is Human diploid foreskin fibroblasts (HFF). The experiment can be described thus: XTT 72 hr Growth Inhibition (Assay 3), HFF. Format: cell-based. The following applies: Fibroblast, normal, B-Raf wt, Ras wt. The procedure: as §1, §2, §3
A general note: Tetrazolium assays rely on reduction of a dye to a coloured formazan, in cell work by metabolically active cells.

The next experiment has as its system human melanoma SKMEL2. The experiment can be described thus: Methylene Blue Growth Inhibition Assay (Assay 2), SKMEL2. Format: cell-based. The following applies: SK-MEL-2, B-Raf wt, [Q6IR]N-Ras.
In experiment [3] the test system is colon carcinoma (Colo 205). In words: Methylene Blue Growth Inhibition Assay (Assay 2), Colo205. Format: cell-based. The following applies: Homo sapiens, Colorectal cancer, B-Raf V599E, Ras wt.

B-Raf, sequence (P15056 whole entry): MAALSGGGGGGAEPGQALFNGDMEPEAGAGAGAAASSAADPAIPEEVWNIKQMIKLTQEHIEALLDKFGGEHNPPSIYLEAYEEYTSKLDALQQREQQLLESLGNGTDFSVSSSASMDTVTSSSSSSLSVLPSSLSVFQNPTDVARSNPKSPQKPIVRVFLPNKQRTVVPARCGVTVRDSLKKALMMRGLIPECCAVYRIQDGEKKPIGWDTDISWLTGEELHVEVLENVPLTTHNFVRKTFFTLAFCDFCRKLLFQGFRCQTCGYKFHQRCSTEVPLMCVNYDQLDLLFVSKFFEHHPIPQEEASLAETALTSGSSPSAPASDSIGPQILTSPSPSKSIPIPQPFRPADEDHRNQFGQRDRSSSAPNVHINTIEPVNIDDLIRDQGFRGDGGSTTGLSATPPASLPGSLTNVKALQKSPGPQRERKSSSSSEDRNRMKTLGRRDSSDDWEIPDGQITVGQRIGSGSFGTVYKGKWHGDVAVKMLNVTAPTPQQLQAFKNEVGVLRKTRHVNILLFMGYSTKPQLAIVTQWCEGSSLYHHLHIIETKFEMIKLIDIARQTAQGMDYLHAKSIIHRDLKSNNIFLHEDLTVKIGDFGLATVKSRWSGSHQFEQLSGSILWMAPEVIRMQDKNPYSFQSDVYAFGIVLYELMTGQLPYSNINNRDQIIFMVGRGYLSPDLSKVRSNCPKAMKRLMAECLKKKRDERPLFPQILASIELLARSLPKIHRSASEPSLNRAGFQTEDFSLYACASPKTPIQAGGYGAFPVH

Compound `CN(C)CCOc1ccc(-c2cc(-c3ccc4c(c3)CCC4=NO)c(-c3ccncc3)o2)cc1` [Example 4, 5-{5-[4-(2-Dimethylaminoethoxy)phenyl]-2-pyridin-4yl-furan-3-yl}indan-1-one oxime] gave a Kd at B-Raf of 1 nM. In addition, the pIC50 was 7.09 in the experiment on human melanoma A375P; 6.30 in experiment [1]; 6.00 with human melanoma SKMEL3; 5.15 in experiment [2]; 6.66 in the experiment on human melanoma SKMEL2; 6.96 in experiment [3].

Source of the values: US7297694B2, “Pyridylfurans and pyrroles as Raf kinase inhibitors” (SmithKline Beechum P.L.C., priority 2001, dated 2007).
